Experimental data reported in a melting point compilation (Tetko et al.; mined from patent text by program, amines drawn as free bases though some values may be those of a salt).

Row | Structure (SMILES) | melting point
1 | Brc1ccn2nc(N3CCOCC3)nc2c1 | 178 to 179 °C
2 | NS(=O)(=O)NCC=Cc1ccccc1 | 118 °C
3 | CCc1cc2c(s1)-n1c(nnc1C1CCCCC1)CN=C2c1ccccc1Cl | 116 to 119 °C
4 | Oc1cccnc1SCc1ccccc1 | 103 to 104 °C
5 | CN(C)C=Nc1sc([N+](=O)[O-])cc1C#N | 230 °C
6 | CC(C)C(C)Nc1c(NCc2ccc(C#N)cc2)c(=O)c1=O (stereo not given) | 257 to 260 °C
7 | Cc1cc(C(=O)Nc2ccc(C(=O)O)cc2)on1 | > 300 °C
8 | N#Cc1ccc(NC(=O)Nc2cccc(C#N)c2)cc1 | 183 to 185 °C
9 | Clc1nccc(Oc2ccc3[nH]ccc3c2)n1 | 169 to 176 °C
10 | CC(C(=O)O)c1ccc(CC2CCCC2=NO)cc1 (stereo not given) | 146 to 148 °C
11 | c1ccc(CN2CCC3(CC2)OCc2ccccc23)cc1 | 67 to 68.5 °C
12 | CSc1nc(N)nc(N2CCc3ccccc3CC2)c1C#N | 164 to 168 °C
13 | Cc1c(N2CC[C@@H](N)[C@H](C)C2)c(F)cc2c(=O)c(C(=O)O)cn(C3CC3)c12 (relative stereo) | 223 to 225 °C
14 | Cc1sc(NC(=O)OC(C)(C)C)c(NC(=O)OC(C)(C)C)c1C#N | > 300 °C
15 | CC1C(=O)N2CCCC(C(=O)OC(C)(C)C)N2C1=O (stereo not given) | 127 to 128 °C
16 | C[C@@H](n1cc(Cn2cncn2)nn1)[C@](O)(Cn1cncn1)c1ccc(F)cc1F | 162 to 163 °C
17 | Cc1oc(=O)c(Nc2ccc([N+](=O)[O-])cc2)nc1Cl | 230 to 234 °C
18 | C=CCSc1nnc(Cl)c2ccccc12 | 76 to 78 °C
19 | CC(=O)N1CCN(C(=O)Cc2ccc(Cl)c(Cl)c2)C(CN2CCC(O)C2)C1 (stereo not given) | 133 °C
20 | OCc1cnn2ccc3c(c12)CCO3 | 152 to 154 °C
21 | CCOC(=O)c1cn(-c2nnc(C)s2)cn1 | 121 to 122 °C
22 | Cc1c(Br)cccc1N1CCn2c(cc3c2CCCC3)C1=O | 163 to 165 °C
23 | CC(C)(C)OC(=O)N1CCN(c2cncc(Cl)n2)CC1 | 108 °C
24 | O=C(O)CNC1CCc2ccccc2C1 (stereo not given) | 223 to 227 °C

Row | Structure (SMILES) | melting point
25 | CCCOC(=O)C(C)NC(=O)C(CC(=O)O)NC(=O)C(C)N (stereo not given) | 223 to 225 °C
26 | CC(C)(C)OC(=O)N1CCC2(CC1)C(=O)Nc1ccccc12 | 138 to 140 °C
27 | C[Si](C)(C)O[C@H]1C=C(S(=O)(=O)c2ccccc2)C=CCC1 | 61.9 to 63.8 °C
28 | CN(C)CCNC(=O)N1CCN(c2ccc([N+](=O)[O-])cc2)CC1 | 115 to 120 °C
29 | N#CC1(CC(=O)O)CCCCC1 | 102 °C
30 | CCOC(=O)c1c(C)[nH]c(C)c1CC | 105 to 107 °C
31 | C=CC(=O)N1CCc2cc(OC)c(OC)cc2C12CCC(C(=O)OCC)(C(=O)OCC)CC2 | 131 to 134 °C
32 | CCOCn1c(-c2sc(Cl)c(Cl)c2Cl)c(C#N)c(Br)c1C(F)(F)F | 85 to 87 °C
33 | CC1=C(C(=O)OC(C)(C)C)C(c2cccc(F)c2)C(C(=O)OC(C)(C)C)=C(C)N1 | 178 to 179 °C
34 | Cc1ccc2cc(-c3ccc4c(c3)C(C)(C)CCC4(C)C)ccc2c1 | 173 to 175 °C
35 | CC1(C)[C@@H](CNc2ccc(C(F)(F)F)cn2)CC[C@@]1(C)NCC(=O)N1C[C@@H](F)C[C@H]1C#N | 52 to 58 °C
36 | COc1nc(Cl)ccc1C=O | 62 to 64 °C
37 | O=C(Nc1ccc(OC(F)(F)F)cc1)NC1CCN(C(=O)Cc2ccccn2)CC1 | 183 to 187 °C
38 | CCOC(=O)CC1SC(c2cc(C(C)(C)C)c(O)c(C(C)(C)C)c2)N(CCCBr)C1=O (stereo not given) | 154 to 155 °C
39 | CC1(C)C(=O)N(c2ccc(C#N)c(C(F)(F)F)c2)C(=O)N1CCCC(=O)O | 179 to 180 °C
40 | NNC1=NC(=O)C(=Cc2cccc(-c3cc(F)c(O)c(C45CC6CC(CC(C6)C4)C5)c3)c2)S1 | 303 to 308 °C
41 | COCCCOc1cc(C[C@@H](C[C@H](N)[C@@H](O)C[C@H](C(=O)NCC(C)(C)C(N)=O)C(C)C)C(C)C)ccc1OC | 95 to 104 °C
42 | CCCCCCCCCCc1ccc2c(c1)-n1c(C)nnc1C(C)N=C2c1ccccc1 (stereo not given) | 111 to 112 °C
43 | CC(C)(C#N)c1cc(Cn2cncn2)cc(C(C)(C)C#N)c1 | 81 to 82 °C
44 | CCC1CCC(c2ccc(-c3cc(F)c(C(F)(F)Oc4cc(F)c(C(F)(F)F)c(F)c4)c(F)c3)c(F)c2)OC1 (stereo not given) | 90 °C
45 | C=C(Br)C(=O)Nc1ccccc1 | 90.5 to 92.5 °C
46 | CC(=O)C(C#N)c1ccc2c(c1)Cc1cccnc1O2 (stereo not given) | 245 to 248 °C
47 | N#Cc1ccc(Nc2ncc(Cl)c(O)n2)cc1 | > 300 °C
48 | CCN1C(=O)C(=O)C(C)=C(C#N)C1=O | 159 to 160 °C

Next, values leading:

Row | melting point | Structure (SMILES)
49 | 94 to 96 °C | Cn1nc(Cl)c(C(=O)Cc2ccccc2)c1Cl
50 | 337 to 340 °C | O=C(O)c1ccc2c(c1)S(=O)(=O)c1ccccc1C(=O)N2
51 | 192 to 193 °C | NS(=O)(=O)c1ccc(-c2cnn(CC3=CCCCC3)c(=O)c2-c2ccc(F)cc2)cc1
52 | 143 to 145 °C | Cc1ccc(C(N)=S)c2ccccc12
53 | 182 °C | Cn1cccc1C(=O)NCCN1CCC(Nc2nc3ccccc3n2Cc2ccc(CO)o2)CC1
54 | 98 to 100 °C | CCC(C)(C)C(=O)Oc1cc2c(s1)CCN([C@H](C(=O)OC)c1ccccc1Cl)C2
55 | 148 °C | COc1ccc(Cc2nc3c(c(OC)nn3C(C)CCCc3ccccc3)c(=O)[nH]2)cc1OC (stereo not given)
56 | 76 to 77 °C | CC(C)(C)[Si](C)(C)Oc1ccc(CON2C(=O)c3ccccc3C2=O)cc1
57 | 231 to 232 °C | O=C(N[C@H](Cc1ccc(C(F)(F)F)cc1)[C@@H](O)c1ccc(F)cc1)c1cccc2c1-c1ccccc1C2=O (racemic)
58 | 99 to 101 °C | O=C(O)Cc1cc(F)ccc1OCCc1ccccc1
59 | 145 to 146 °C | c1ccc(-c2ccc(COc3ccc4c(c3)CCC(CCn3ccnc3)C4)cc2)cc1 (stereo not given)
60 | 121 to 123 °C | CN(C)Cc1nc(CO)nn1-c1ccc(Cl)cc1C(O)c1ccccc1 (stereo not given)
61 | 81 to 82 °C | O=C1c2ccccc2C(=O)N1CCCOc1ccncc1
62 | 91 to 94 °C | Cn1c(C(F)(F)F)cc(=O)n(-c2cc(OCSc3ccccc3)c(Cl)cc2F)c1=O
63 | 166 to 167 °C | CCCCOc1c(C(=O)O)n(CC2CC2)c(=O)c2ccc(Br)cc12
64 | 247 to 249 °C | CCCCc1nc2cccc(C(=O)NC(C)C)c2n1Cc1ccc(-c2ccccc2-c2nnn[nH]2)cc1
65 | 128 to 134 °C | CS(=O)(=O)NCCCn1c(-c2ccc(Br)cc2)csc1=Nc1ccccc1
66 | 101 to 103 °C | CC(=O)NC(C)c1ccc(CN2CCN(c3ccc(F)cc3)CC2)cc1 (stereo not given)
67 | 57 to 58 °C | O=C(COc1ccccc1Cl)NCCO[N+](=O)[O-]
68 | 170 to 172 °C | CC(=O)c1ccc(-c2ccc(OCc3nc4ccccc4s3)cc2)c(F)c1
69 | 206 to 207 °C | C[C@]1(COc2ccc(N3CCN(Cc4ccc(C(F)(F)F)cc4)CC3)cc2)Cn2cc([N+](=O)[O-])nc2O1
70 | 221 to 222 °C | O=C1NC(=O)C(Oc2ccc3ccccc3c2)S1 (stereo not given)
71 | 160 to 162 °C | N#Cc1c(N2CCCCC2)cc(-c2ccco2)c2c1Cc1ccccc1-2
72 | 146 to 150 °C | CCOC(=NS(=O)(=O)c1ccccc1)N1Cc2ccccc2-c2ccccc2C1
73 | 265 to 267 °C | COc1ccc(C=C2N=C(c3ccc([N+](=O)[O-])cc3)OC2=O)cc1OC
74 | 259 to 260 °C | Cc1sc(C(=O)O)cc1NC(=O)NCc1ccccc1

Row | melting point | Structure (SMILES)
75 | 208 to 209 °C | COC(=O)c1cc(C(=O)NNC(C)=O)c2cc(Cc3ccc(F)cc3)cnc2c1O
76 | 160 to 161 °C | CCSc1cc(C)nc(SCC)c1NC(=O)CCCSc1nc2ccccc2[nH]1
77 | 166 °C | COC(=O)c1cc(F)ccc1Nc1ccnc2c(C(F)(F)F)cccc12
78 | 199 to 201 °C | O=C(O)c1cc2ccc(OCc3ccccc3)cc2o1
79 | 141 to 143 °C | O=C(O)COc1ccc2c(c1)-c1nc(SC(c3ccccc3)c3ccccc3)sc1CC2
80 | 208 to 210 °C | C[C@@H](NC(=O)c1cnn(-c2ccc(C(F)(F)F)cc2)c1N)[C@](O)(Cn1cncn1)c1ccc(F)cc1F
81 | 217 to 218 °C | Cc1ccc(-c2nc(C#N)cc3c4cccc5c4n(c23)CCC5)cc1
82 | 114 to 116 °C | COc1cn(C(C)(C)C(=O)N(C)C)nc1-c1ccccc1
83 | 232 to 234 °C | Cc1cc(SC2=C(O)C[C@@](CCc3ccc(O)cc3)(C(C)C)OC2=O)c(C(C)C)c2sc(N)nc12
84 | 68 to 71 °C | CC(C)(C)NC(=O)[C@@H]1CC(OCCCCF)CN1C(=O)[C@@H](O)[C@H](Cc1ccccc1)NC(=O)[C@H](CC(N)=O)NC(=O)OCc1ccccc1 (stereo not given in full)
85 | 255 to 257 °C | O=C(NCc1ccc(Cl)cc1)c1cnc2ccc(-c3ccccc3)cc2c1O
86 | 111 to 112 °C | CC(C)c1ccc2nc3ccc(C(=O)OCCCc4cccnc4)cc3c(=O)n2c1
87 | 133 to 143 °C | CCCCc1nc2cccc(C(=O)OC)c2c(=O)n1Cc1ccc(-c2ccccc2-c2nnn[nH]2)cc1
88 | 125 to 129 °C | N#Cc1ccc(C(=O)NCCCCn2cnc3c(N)nc4ccccc4c32)cn1
89 | 145 °C | CC(C)COC(=O)N[C@H](CCCNC(=O)OCc1ccccc1)C(=O)NCc1ccc(CC(N)=O)cc1
90 | > 270 °C | CCn1c(=O)c2[nH]c(/C=C/c3ccccc3F)nc2n(CC)c1=O
91 | 113 to 115 °C | CCCCCN1C(=O)C2(OCc3cc4c(cc32)OCO4)c2ccccc21 (stereo not given)
92 | 109 to 111 °C | COC(=O)C=CCC1C(=O)N2C(C(=O)OCc3ccc([N+](=O)[O-])cc3)=CCC12 (stereo not given)
93 | 131 to 133 °C | CC1=C(C(=O)OC(C)C)[C@@H](c2cccc(Cl)c2)NC(=O)N1C(N)=O
94 | 222 to 224 °C | CCC(CC)c1ccc(Cl)c2nc3n(c12)CC(=O)N3c1cnc(N(C)C)cc1C
95 | 70 to 72 °C | Clc1cc(-c2ccccc2)ccn1
96 | 114 to 115 °C | COc1ccc(Cn2c(=O)c3cccnc3n(CCCCl)c2=O)cc1
97 | 60 to 61 °C | COc1ccc(CC(=O)NO[C@@H](C)c2ccccc2)cc1
98 | 95 to 99 °C | NC1=NC(c2cccc(-c3cccnc3F)c2)(c2ccc3c(c2)OC(F)(F)O3)C2=NCCCN12 (stereo not given)
99 | 189 to 190 °C | CN(C)c1nc(-c2ccc(Cl)cc2)c(CCC(=O)O)o1
100 | 223 to 225 °C | O=[N+]([O-])c1cccc(C2=NCc3n[nH]nc3-c3ccccc32)c1
